≈ marks a conversion by molar mass, not a printed value. Like-named read-outs stand apart in the source and are kept apart here. Where a SMILES comes first, the peptide text is derived from it.
Tests used:
[1] = target: T1, cloned human mu opioid receptor (Homo sapiens, UniProt P35372); assay: biochemical; format: biochemical
T1 construct: expressed in transfected cells

[2] = target: T2, cloned human delta opioid receptor (Homo sapiens, UniProt P41143); assay: biochemical
T2 construct: expressed in transfected cells

[3] = target: cloned human kappa opioid receptor (Homo sapiens, UniProt P41145); assay: biochemical
[4] = target: human delta opioid receptor (Homo sapiens, UniProt P41143); assay: biochemical; format: binding
[5] = target: human kappa opioid receptor (Homo sapiens, UniProt P41145); assay: biochemical; format: binding
human mu opioid receptor = target: T3, human mu opioid receptor (Homo sapiens, UniProt P35372); assay: biochemical; format: binding
T3 construct: expressed in transfected cells; host or cells: CHO cells

[6] = Conditioned place preference (CPP); details: rat, i.v., doses producing maximal antinociception
glia = assay: Glial activation (GFAP and phospho-p38 staining) after 1 week of treatment; details: rat, after 1 week intrathecal treatment
[7] = target: T2, cloned human delta opioid receptor; assay: 35S-GTPγS functional assay, delta antagonism against ED80 dose of SNC80; format: biochemical; details: for Delta Antagonist efficacy: against ED80 dose of SNC80
[8] = rat
[9] = Spared nerve injury (SNI) neuropathic pain, Randall-Selitto paw pressure; format: in vivo; details: rat SNI; for Reversal time of hyperalgesia (significantly above vehicle): intrathecal cumulative doses
[10] = Rotorod test of motor coordination; details: rat, cumulative i.v. doses
[11] = Tolerance: intrathecal cumulative dose-response in tail-flick test before and after 1 week osmotic minipump; format: in vivo; details: rat; for ED50 antinociception on Day 7 after minipump implantation: morphine 2 μg/hr or analog 0.056 μg/hr for about 7 days; for ED50 antinociception in opioid naïve animals: before minipump
[12] = Morris Water Maze (spatial memory); details: rat, after 4 days of training
[13] = Tail-flick (TF) antinociception after i.v. administration; format: in vivo; details: rat; for Antinociception (tail-flick): i.v., 5.6 mg/kg
Solubility = format: physicochemical
Protocol: The solubility of the peptides of Formula I (e.g., in saline or physiologic buffer) typically is enhanced relative to the prior art tetrapeptide analogs of the endomorphins Addition of a hydrophilic amino acid and amidated C-terminus to the relatively hydrophobic tetrapeptide sequences Tyr-cyclo[D-Lys-Trp-Phe] (SEQ ID NO:10) and Tyr-cyclo[D-Lys-Phe-Phe] […] For example, Compound 1 was soluble in water, saline and 20% PEG/saline at about 43, 21 and 90 mg/mL, respectively, compared to less than about 2 mg/mL for the previously described compounds. While increases in solubility are associated with improved pharmaceutical delivery properties, higher solubility is also often associated with reduced functional activity (e.g., receptor binding) that may depend on lipophilicity.

Chain of human delta opioid receptor (P41143 whole entry): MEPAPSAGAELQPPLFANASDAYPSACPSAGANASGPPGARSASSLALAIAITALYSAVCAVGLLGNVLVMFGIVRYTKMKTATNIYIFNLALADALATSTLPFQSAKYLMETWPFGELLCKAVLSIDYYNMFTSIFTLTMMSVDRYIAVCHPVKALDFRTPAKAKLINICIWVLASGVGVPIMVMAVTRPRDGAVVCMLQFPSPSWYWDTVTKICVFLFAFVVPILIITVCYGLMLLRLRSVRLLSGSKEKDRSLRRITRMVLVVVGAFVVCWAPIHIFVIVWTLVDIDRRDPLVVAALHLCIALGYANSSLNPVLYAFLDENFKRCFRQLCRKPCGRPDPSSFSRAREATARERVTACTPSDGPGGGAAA
T2 sequence (P41143 whole entry): as above
T3 sequence (P35372 whole entry): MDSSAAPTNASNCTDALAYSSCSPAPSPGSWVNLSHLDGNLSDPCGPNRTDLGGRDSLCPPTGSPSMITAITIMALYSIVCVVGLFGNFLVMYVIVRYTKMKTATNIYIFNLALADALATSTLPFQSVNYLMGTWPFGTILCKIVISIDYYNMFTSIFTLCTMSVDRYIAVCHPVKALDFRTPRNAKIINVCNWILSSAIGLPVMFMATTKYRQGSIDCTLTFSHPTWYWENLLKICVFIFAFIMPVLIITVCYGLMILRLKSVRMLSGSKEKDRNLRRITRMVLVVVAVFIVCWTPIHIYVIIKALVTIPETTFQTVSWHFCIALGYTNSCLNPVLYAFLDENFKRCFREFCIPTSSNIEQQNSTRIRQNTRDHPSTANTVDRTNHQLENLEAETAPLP
T1 sequence (P35372 whole entry): as above
Chain of human kappa opioid receptor (P41145 whole entry): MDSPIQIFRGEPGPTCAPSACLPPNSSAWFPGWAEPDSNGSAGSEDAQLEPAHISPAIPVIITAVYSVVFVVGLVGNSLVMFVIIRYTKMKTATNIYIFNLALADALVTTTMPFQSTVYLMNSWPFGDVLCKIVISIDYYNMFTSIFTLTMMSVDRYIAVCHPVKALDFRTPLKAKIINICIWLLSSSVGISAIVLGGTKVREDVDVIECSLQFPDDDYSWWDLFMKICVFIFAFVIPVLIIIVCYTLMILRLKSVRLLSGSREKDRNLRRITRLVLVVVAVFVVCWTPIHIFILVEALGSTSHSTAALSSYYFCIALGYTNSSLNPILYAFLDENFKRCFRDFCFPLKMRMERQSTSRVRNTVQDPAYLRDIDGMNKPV
Chain of cloned human kappa opioid receptor (P41145 whole entry): as above

Compound: N[C@@H](Cc1ccc(O)cc1)C(=O)N[C@@H]1CCCCNC(=O)[C@H](Cc2ccccc2)NC(=O)[C@H](Cc2ccccc2)NC1=O [ck2, Tyr-c[D-Lys-Phe-Phe], reference compound] (HELM PEPTIDE1{Y.[dK].F.F}$PEPTIDE1,PEPTIDE1,2:R3-4:R2$$$V2.0; bridges inferred)
- EC50 [1]: 0.15 nM
- EC50 [2]: 7 nM
- Selectivity delta/mu (activation) [2]: 44
- EC50 [3]: 206 nM
- Selectivity kappa/mu (activation) [3]: 1374
- Ki [4]: 3 nM
- Selectivity Delta/Mu (binding) [4]: 9
- Ki [5]: 12 nM
- Selectivity Kappa/Mu (binding) [5]: 33
- Ki (human mu opioid receptor): 0.36 nM

Compound: NC(=O)[C@@H]1CC(=O)NCCCC[C@@H](NC(=O)[C@@H](N)Cc2ccc(O)cc2)C(=O)N[C@@H](Cc2c[nH]c3ccccc23)C(=O)N[C@@H](Cc2ccccc2)C(=O)N1 [Compound 5, Tyr-c[D-Lys-Trp-Phe-Asp]-NH2]
- EC50 [1]: 0.22 nM
- Conditioned place preference (time spent on the drug side) [6]: no significant CPP
- EC50 [2]: > 100000 nM
- Glial activation (integrated density of GFAP and pp38 staining) (glia): activation was not significantly different from vehicle
- Ki [4]: 140 nM
- IC50 [7]: 557 nM
- Delta Antagonist efficacy [7]: 100
- Ki (human mu opioid receptor): 0.43 nM

Compound: CN1CC[C@]23c4c5ccc(O)c4O[C@H]2[C@@H](O)C=C[C@H]3[C@H]1C5 [Morphine, morphine, reference compound]
- Conditioned place preference (time spent on the drug side) [6]: increase in the time spent on the drug side
- Self-administration [8]: resulted in significant self-administration
- Glial activation (integrated density of GFAP and pp38 staining) (glia): produced significant glial activation
- Dose required to fully (100%) reverse hyperalgesia ([9]; intrathecal): about 1.14 μg
- Reversal time of hyperalgesia (significantly above vehicle) [9]: about 80 min
- Motor impairment (rotorod) [10]: significantly above that of vehicle controls
- ED50 antinociception on Day 7 after minipump implantation [11]: 16 ± 3.3 µg
- ED50 antinociception in opioid naïve animals ([11]; tail-flick): 0.253 µg
- Impairment of spatial memory (latency to and distance from platform) [12]: produced impairment of spatial memory

Compound: Tyr-c[D-Lys-Trp-Phe-Glu]-Gly-NH2 [Compound 3]
- Delta Antagonist efficacy [7]: full efficacy delta antagonism

Compound: NC(=O)[C@@H]1CCCCNC(=O)CC[C@@H](NC(=O)[C@@H](N)Cc2ccc(O)cc2)C(=O)N[C@@H](Cc2ccccc2)C(=O)N[C@@H](Cc2ccccc2)C(=O)N1 [Compound 2, Tyr-c[D-Glu-Phe-Phe-Lys]-NH2]
- EC50 [1]: 0.99 nM
- Conditioned place preference (time spent on the drug side) [6]: no significant CPP
- EC50 [2]: > 100000 nM
- Glial activation (integrated density of GFAP and pp38 staining) (glia): activation was not significantly different from vehicle
- Ki [4]: 69 nM
- Reversal time of hyperalgesia (significantly above vehicle) [9]: ~260 min
- Motor impairment (rotorod) [10]: significantly less than that of morphine
- IC50 [7]: 2750 nM
- Delta Antagonist efficacy [7]: 51
- Shift in ED50 (tolerance) ([11]; after 1 week minipump): about 8.5 fold
- ED50 antinociception on Day 7 after minipump implantation [11]: about 0.11±0.02 μg
- Potency relative to morphine on a molar basis ([11]; tail-flick): about 40 fold
- ED50 antinociception in opioid naïve animals ([11]; tail-flick): 0.01 µg
- Impairment of spatial memory (latency to and distance from platform) [12]: did not produce significant impairment
- Antinociception (TF latency) relative to morphine ([13]; cumulative i.v. doses, at 135 and 155 minutes): significantly longer antinociception
- Antinociception (tail-flick) [13]: antinociception similar to the 10 mg dose of morphine
- Ki (human mu opioid receptor): 0.73 nM

Compound: N[C@@H](Cc1ccc(O)cc1)C(=O)N[C@@H]1CCCCNC(=O)[C@H](Cc2ccccc2)NC(=O)[C@H](Cc2c[nH]c3ccccc23)NC1=O [ck1, Tyr-c[D-Lys-Trp-Phe], reference compound] (HELM PEPTIDE1{Y.[dK].W.F}$PEPTIDE1,PEPTIDE1,2:R3-4:R2$$$V2.0; bridges inferred)
- EC50 [1]: 0.21 nM
- EC50 [2]: 138 nM
- Selectivity delta/mu (activation) [2]: 658
- EC50 [3]: 470 nM
- Selectivity kappa/mu (activation) [3]: 2236
- Ki [4]: 28 nM
- Selectivity Delta/Mu (binding) [4]: 90
- Ki [5]: 35 nM
- Selectivity Kappa/Mu (binding) [5]: 111
- Ki (human mu opioid receptor): 0.32 nM

Compound: NC(=O)[C@@H]1CCC(=O)NCCCC[C@@H](NC(=O)[C@@H](N)Cc2ccc(O)cc2)C(=O)N[C@@H](Cc2c[nH]c3ccccc23)C(=O)N[C@@H](Cc2ccccc2)C(=O)N1 [Compound 1, Tyr-c[D-Lys-Trp-Phe-Glu]-NH2]
- Agonist EC50 mu [1]: significantly greater potency than the reference compound, DAMGO
- Agonist efficacy at the mu receptor [1]: full efficacy agonist
- EC50 [1]: 0.15 nM
- EC50 [2]: > 100000 nM
- Glial activation (integrated density of GFAP and pp38 staining) (glia): activation was not significantly different from vehicle
- Ki [4]: 132 nM
- Time at which scores were significantly above those of morphine ([9]; intrathecal): 155 to 215 min
- solubility (Solubility; 20% PEG/saline, read-out: Solubility in 20% PEG/saline): ~90 mg/mL (≈ 120 mM)
- solubility (Solubility; saline, read-out: Solubility in saline): ~21 mg/mL (≈ 27.9 mM)
- solubility (Solubility; water, read-out: Solubility in water): ~43 mg/mL (≈ 57.1 mM)
- IC50 [7]: 105 nM
- Delta Antagonist efficacy [7]: full efficacy delta antagonism
- Delta Antagonist efficacy ([7]; listed as Comp. 1): 93
- Antinociception (TF) relative to morphine ([13]; cumulative doses, about 140 to 180 minutes after injection): greater antinociception
- Antinociception (tail-flick) [13]: antinociception similar to the 10 mg dose of morphine
- Ki (human mu opioid receptor): 0.49 nM
